Legend:
Assay type in all cases: cell-based
Smo::EGFP [1] = biological target: T1, Smo::EGFP (Homo sapiens, UniProt Q99835); assay: High content assay of Shh-induced Smo::EGFP accumulation in the primary cilium (Smo::EGFP/Ivs::tagRFPT NIH/3T3 cells); conditions: 3T3/Smo::GFP/Ivs::tagRFPT cells; stimulus Shh; read-out: IC50, inhibition of Shh-induced Smo::GFP ciliary accumulaton
T1 construct: expressed in transfected cells
Excerpt: (§1) NIH/3T3 cells were maintained in DMEM containing 10% (v/v) calf serum, penicillin, streptomycin, and L-glutamine. HEK293, L, cos 7, and suFU−/− mouse embryonic fibroblast cells were maintained in DMEM containing 10% (v/v) fetal bovine serum, penicillin, streptomycin, and L-glutamine. Smo::EGFP, SmoM2::GFP, and Ivs::tagRFPT were cloned into pBabe to generate retroviral particles for infection. Smo::EGFP/Ivs::tagRFPT and SmoM2::GFP/Ivs::tagRFPT stable cell lines were generated through viral infection of NIH/3T3^12. A ShhLightII Gli reporter cell line was obtained from the American Type Culture Collection (ATCC) and used in luciferase reporter assays to measure Hh pathway activity. The cell line contains a stably integrated Gli-responsive Firefly luciferase reporter and a constitutive Renilla luciferase expression construct^33. Subclones expressing Smo or SmoM2 in ShhLightII cells were used for chemical epistasis analyses.
(§2) Cells were cultured and treated in 384-well imaging plate precoated with poly-D-Lysine (Greiner Bio-one), fixed with 4% paraformaldehyde (Electron Microscopy Sciences), and stained with Hoechst (Invitrogen). Images were collected using Opera High Content Screening System (Perkin Elmer). Activityl)ase (IDBS Inc, Emeryvill, Calif.) and Pipeline Pilot (Accelrys, Inc. San Diego, Calif.) were used for high content screening data management and analysis. Acapella 2.0 software (Evotec Technologies/PerkinElmer) was used to perform multi-parametrical high content image quantification. All the images for comparison were scanned with identical microscopic settings and analyzed with the same input parameters.
(§3) Acapella 2.0 software (Evotec Technologies/PerkinElmer) was used to perform multi-parametric high content image quantification. Our image analysis script used Ivs::tagREPT to first determine the location of the PC and then Smo::EGFP to quantify the level of Smo present in the cilium.
The inventors used the spot-finding algorithm in the RFP channel to find Ivs-rich spots. Each non-overlapping spot was based on a maximum 8 pixel-radius (when using a 40× objective) around a central intensity peak of 5 pixels. A distance of at least 10 pixels was required between adjacent spot centers. Spot peaks had to exceed thresholds of relative intensity compared to the remaining body of the spot as well as to the entire image. The average, maximum and total RFP intensity of each spot were measured. The spots with sufficiently high absolute maxima to pass the selected threshold were classified as positive spots. To form candidate cilia, the inventors selected the brightest 15% of the pixels in each positive spot and merged those pixels into objects so that the brightest parts of adjacent spots could form single, larger cilia-shaped objects. To qualify the candidate cilia as true Ivs-positive cilia, the width of the objects created from merging the brightest pixels in each spot had to be at least 2 pixels and the length to half-width ratio had to exceed 3. (i.e. a 3-pixel long by 2-pixel wide cilium was the minimum accepted cilium size and the length had to be at least 1.5 fold of the width). The mean GFP intensity within these Ivs-positive cilia was used to estimate the ciliary level of Smo protein. The inventors subtracted the background of the mean GFP intensity in the 3-pixel wide area around each candidate cilium to avoid some false positives. Those Ivs-positive cilia that exceed the final mean GFP intensity threshold set for each experiment were deemed Smo-positive cilia.
Hoechst staining was used to determine the total number of nuclei per well.
Measurements of the geometry of the cilia as well as the total fluorescent intensities of each cilium in the Smo- and Ivs-channels were used to determine if any of the compounds were having unusual effects on cilia size, intensity or frequency of observation or combinations of all three characteristics.

Hh pathway activity = assay: SAG-induced Gli-luciferase reporter expression (3T3/Shh-LightII); conditions: Mus musculus, Shh Light II, 3T3/Shh-LightII cells; 100 nM SAG; read-out: IC50, inhibition of SAG-induced expression of Gli-luciferase reporter
Experimental: (§4) Hh activity assays were performed using ShhLightll cells, Smo/Lightll cells, SmoM2/Lightll cells, and suFU−/− mouse embryonic fibroblasts. In the suFU−/− cells, Hh activity was measured after co-transfection with Gli driven firefly luciferase and TK-renilla luciferase reporters^41. Wnt activity was measured in 293 cells co-transfected with Top-flash and TK-renilla luciferase reporters^42. Cells were cultured and treated in 96 well assay plates (Corning) and incubated with Duo-Glo luciferase substrates (Promega) to measure firefly and renilla luciferase activity sequentially using a Top Count NX Microplate Scintillation and Luminescence Counter (Perkin Elmer). The renilla luciferase signal was used to normalize the firefly reporter activity.
ShhLightII cells and SmoM2/LightII cells were cultured and treated in 96 well assay plates (Corning) and incubated with Duo-Glo luciferase substrates (Promega) to sequentially measure firefly and renilla luciferase activity. […] Wnt activity was measured following co-transfection of a Top-flash and renilla luciferase reporter. […] Luciferase signal was read by TopCount NX Microplate Scintillation and Luminescence Counter (Perkin Elmer). Quantitative PCR probes for Ptch1, Gli1, and β-actin were purchased from Applied Biosystems. […]

Smo = assay: Gli-luciferase reporter induced by Smo::GFP overexpression (Smo/LightII cells); conditions: Mus musculus, Shh Light II; 3T3/Smo::GFP Overexpression/Shh-LightII; stimulus none; read-out: IC50, inhibition of expression of Gli-luciferase reporter induced by Smo::GFP overexpression
Excerpt: as §1, with “The cell line contains a stably integrated Gli-responsive Firefly luciferase reporter and a constitutive Renilla luciferase expression construct^33. Subclones expressing Smo or SmoM2 in ShhLightII cells were used for chemical epistasis analyses.” left out
as §4, with “The renilla luciferase signal was used to normalize the firefly reporter activity.” left out

Smo::EGFP [2] = biological target: T1, Smo::EGFP; assay: Cyc-induced Smo ciliary accumulation (Smo::EGFP/Ivs::tagRFPT cells); conditions: 5 μM Cyc
Experimental: as §2, §3

T1 sequence (Q99835 28-787): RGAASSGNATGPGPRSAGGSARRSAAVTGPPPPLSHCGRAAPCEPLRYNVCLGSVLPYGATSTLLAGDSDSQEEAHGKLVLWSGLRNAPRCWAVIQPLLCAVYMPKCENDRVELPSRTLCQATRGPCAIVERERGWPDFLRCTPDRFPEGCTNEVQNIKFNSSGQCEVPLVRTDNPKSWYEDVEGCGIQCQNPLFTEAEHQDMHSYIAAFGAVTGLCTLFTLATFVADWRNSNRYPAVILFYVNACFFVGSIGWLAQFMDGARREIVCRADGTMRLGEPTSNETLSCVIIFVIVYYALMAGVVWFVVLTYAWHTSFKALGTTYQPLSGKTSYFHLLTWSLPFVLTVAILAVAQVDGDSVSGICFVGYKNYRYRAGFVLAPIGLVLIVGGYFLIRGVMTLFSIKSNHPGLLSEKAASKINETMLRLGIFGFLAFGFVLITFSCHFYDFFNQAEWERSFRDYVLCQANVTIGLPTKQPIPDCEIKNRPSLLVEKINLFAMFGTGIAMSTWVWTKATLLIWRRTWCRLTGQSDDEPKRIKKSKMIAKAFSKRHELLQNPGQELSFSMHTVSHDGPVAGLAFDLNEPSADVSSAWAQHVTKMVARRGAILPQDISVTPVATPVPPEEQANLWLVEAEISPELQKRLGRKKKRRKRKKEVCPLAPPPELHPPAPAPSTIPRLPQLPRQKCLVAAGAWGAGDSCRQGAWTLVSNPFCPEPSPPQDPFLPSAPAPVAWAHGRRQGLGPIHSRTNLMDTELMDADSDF

CCN(CC)c1ccc(/C=N/NC(=O)c2ccc(O)cc2)cc1 [DY131]
IC50 (Smo::EGFP [1]): 800 nM | IC50 (Hh pathway activity): ~2000 nM | IC50 (Smo): > 30 µM | effect on Cyc induced Smo cilial accumulation (Smo::EGFP [2]): effectively compete with Cyc

— US20130274233A1, “MODULATORS OF HEDGEHOG SIGNALING PATHWAY” (priority 2012, published 2013)
